Experimental data as given in patent publication US20170158671A1, “PYRIMIDINE COMPOSITIONS, ULTRA PURE COMPOSITIONS AND SALTS THEREOF, METHODS OF MAKING THE SAME, AND METHODS OF USING THE SAME FOR TREATING HISTAMINE H4 RECEPTOR (H4) MEDIATED DISEASES AND CONDITIONS” (Ziarco Pharma Ltd., priority 2015, published 2017).

What was measured:
[1] = Salt screen: HT-XRPD after accelerated aging conditions; type: physicochemical; conditions: solid form by HT-XRPD after 40° C., 75% RH for two days, code+number = crystalline salt polymorph, 0 = crystalline counter ion itself
Description: XRPD patterns were obtained using the Crystallics T2 high-throughput XRPD set-up. The plates were mounted on a Bruker General Area Detector Diffraction System (GADDS) equipped with a VÅNTEC-500 gas area detector corrected for intensity and geometric variations. The calibration of the measurement accuracy (peaks position) was performed using NIST SRM1976 standard (Corundum).
Data collection was carried out at room temperature using monochromatic CuKα radiation in the 2θ region between 1.5° and 41.5°, which is the most distinctive part of the XRPD pattern. The diffraction pattern of each well was collected in two 2θ ranges (1.5°≦2θ≦21.5° for the first frame, and 19.5°≦2θ≦41.5° for the second) with an exposure time of 90 s for each frame. No background subtraction or curve smoothing was applied to the XRPD patterns.
Approximately 175 mg of N^4-(cyclopropylmethyl)-6-[(3R)-3-(methylamino)pyrrolidin-1-yl]pyrimidine-2,4-diamine in 1-Butanol and Dichloromethane were combined with a slight molar excess of either solid or liquid counter ion. Samples were incubated at RT. After 5 days the solids were collected, dried under vacuum and analyzed by HT-XRPD (XRPD 1).
Subsequently, the solids were exposed to accelerated aging conditions (40° C., 75% RH) for two days and re-analyzed by HT-XRPD (XRPD 2). Crystalline salts (polymorphs) are indicated with the abbreviated counter ion code and a number (1, 2, etc.). The number zero (0) indicates the crystalline counter ion itself.

mild asthmatics = conditions: 36 mg in two single doses given 12 hours apart, oral; cited from earlier work
[2] = test system: adult subjects with moderate to severe atopic dermatitis; assay: Phase 2a study in moderate to severe atopic dermatitis; type: in vivo, human
Description: Following the phase 1 trials, a phase 2a trial was conducted to evaluate the efficacy of 8 weeks of treatment with 30 mg ZPL-389 administered once daily in adult subject with moderate to severe atopic dermatitis. The study was also designed to assess the safety and tolerability of ZPL-389 in adult subjects with moderate to severe atopic dermatitis.
This study was a randomized, double blind, placebo controlled, parallel group study of subjects having a pruritus Numerical Rating Scale (NRS) of ≧5 (0-10 scale), an Investigator's Global Assessment (IGA) ≧3 (0-3 scale), and moderate-severe AD Eczema Area and Severity Index (EASI) ≧12 and ≦48 (0-72 scale). In addition, subjective patient reported outcome instruments include: Ziarco Itch Diary (Electronic) Pruritus; 5D Pruritus Scale; Dermatology Life Quality Index (DLQI); and Patient Global Impression of Change (PGIG).
Each subject (aged 18-65 years) had one or more screening visits to confirm suitability to enter the study. 98 subjects with moderate to severe atopic dermatitis were randomized 2:1 to receive orally either 30 mg ZPL-389 or placebo once daily for eight weeks (56 days).
Efficacy endpoints for the trial include the following: • change from baseline in NRS for pruritus (worst itch) over 24 hours; • change from baseline in daytime NRS for pruritus (worst itch); • change from baseline in night time NRS for pruritus (worst itch); • change from baseline in NRS for sleep disturbance; • change from baseline in duration of itching; • change from baseline in verbal rating score for pruritus; • change from baseline in EASI score; • change from baseline in SCORAD score; • IGA score; • amount of rescue medication use; and/or • PGIC.

[3] = Phase 1 trials, single and multiple ascending doses; type: in vivo, human
Description: In phase 1 trials, 62 subjects were treated with ZPL-389.

[4] = Salt screen: HT-XRPD after accelerated aging conditions; type: physicochemical; conditions: 14 counter ions tested; only hydrochloric acid gave such a salt
[5] = Dynamic vapor sorption (DVS) analysis; type: physicochemical; conditions: 25° C.
Description: Moisture sorption isotherms were collected on a DVS-1 system from Surface Measurement Systems (London, UK). Typical sample size is between 5 and 10 mg of solid material. The relative humidity was cycled between 40% to 0% (desorption), up to 95% (sorption), back to 0% RH (desorption) and up to 95% RH (sorption) in steps of 10% at a constant temperature of 25° C. with an initial stabilizing step at 40% RH for 6 hours.
(FIG. 9) The relative humidity (RH) was cycled between 40% to 0% (desorption), up to 95% (sorption) in steps of 10%. During the desorption, the dehydration step occurs when the RH goes below 10% RH. Water uptake is observed in between 0-20% RH (1.9% mass uptake) and 20-30% (total mass uptake 6.9%).

[6] = 30 mg orally once daily vs placebo
[7] = 30 mg orally once daily, 8 weeks

Compound	XRPD 2 ([1]; 1-Butanol)	XRPD 2 ([1]; Dichloromethane)	further results
O=C(O)CCCC(=O)O [Glutaric acid]	Glut1	Glut1	
Br [Hydrobromic acid]	Amorphous	Amorphous	
CN[C@@H]1CCN(c2cc(NCC3CC3)nc(N)n2)C1 [ZPL-389, N^4-(cyclopropylmethyl)-6-[(3R)-3-(methylamino)pyrrolidin-1-yl]pyrimidine-2,4-diamine]			efficacy in mild asthma (mild asthmatics): no efficacy was observed; IGA remission odds ratio [2, 6]: 2.71; IGA response odds ratio [2, 6]: 2.51; Treatment Emergent Adverse Events (TEAE) between ZPL-389 and placebo [2, 7]: no differences; inflammation compared to placebo (EASI, SCORAD, BSA) [2, 7]: clinically and statistically significant decrease; subjects with clear or almost clear skin [2, 7]: 19%; tolerability / safety profile ([2]; 30 mg orally once daily, 8 weeks, comparable to placebo): well tolerated; rescue medication use ([2]; 30 mg orally once daily, 8 weeks, vs placebo): lower; IGA reduced by ([2]; 30 mg orally once daily, week 8, placebo 25%): 36%; SCORAD reduced by ([2]; 30 mg orally once daily, week 8, placebo 26%, p=0.004): 41%; EASI reduced by ([2]; 30 mg orally once daily, week 8, placebo 27%, p=0.01): 50%; BSA (Body Surface Area) affected by inflammation change from baseline ([2]; 30 mg orally once daily, week 8, placebo −12%, p=0.044): −18%; pruritus ([2]; 30 mg orally once daily, statistically significant compared to baseline): markedly reduced; absorption ([3]; phase 1 trials): rapidly absorbed; pharmacokinetics (dose proportionality) ([3]; phase 1 trials): dose-proportional; majority of observed adverse events ([3]; single ascending doses 0.01-48 mg, multiple ascending doses 5, 15, 50 mg once daily for 14 days): mild, transient, and non-dose related; tolerability ([3]; single ascending doses 0.01-48 mg, multiple ascending doses 5, 15, 50 mg once daily for 14 days, 62 subjects): safely tolerated
O=S(=O)(O)c1ccccc1 [Benzenesulfonic acid]	Amorphous	Amorphous	
CN[C@@H]1CCN(c2cc(NCC3CC3)nc(N)n2)C1.Cl.Cl.O [Example 8, N^4-(cyclopropylmethyl)-6-[(3R)-3-(methylamino)pyrrolidin-1-yl]pyrimidine-2,4-diamine di-hydrochloride hydrate]			stability of two to one stoichiometric salt [4]: stable
O=C(O)/C=C/C(=O)O [Fumaric acid]	Amorphous	Fum0 + Fum3	
O=C(O)CC(O)(CC(=O)O)C(=O)O [Citric acid]	Amorphous	Amorphous	
CC(=O)O [Acetic acid]	Amorphous	Amorphous	
O=C(O)C(O)c1ccccc1 (racemic) [DL-Mandelic acid]	Amorphous	Amorphous	
O=C(O)CNC(=O)c1ccccc1 [Hippuric acid]	Amorphous	Amorphous	
CCS(=O)(=O)O [Ethanesulfonic acid]	Amorphous	Amorphous	
O=C(O)c1ccccc1 [Benzoic acid]	Ben1 + Ben2 plus	Ben1 + Ben2 plus	
O=C(O)[C@H](O)[C@@H](O)[C@H](O)[C@H](O)CO [Gluconic acid]	Amorphous	Amorphous	
O=S(=O)(O)O [Sulfuric acid]	Amorphous	Amorphous	
O=C(O)c1cc(O)ccc1O [Gentisic acid]	Gen2	Gen2	
O=C(O)[C@H](O)[C@@H](O)C(=O)O [(+)-L-Tartaric acid]	Amorphous	Amorphous	
O=C[C@H](O)[C@@H](O)[C@H](O)[C@H](O)C(=O)O [D-Glucuronic acid]	Amorphous	Amorphous	
CC(=O)Nc1ccc(C(=O)O)cc1 [4-acetamido-Benzoic acid]	ABen1 + ABen0	ABen1 + ABen0	
CN[C@@H]1CCN(c2cc(NCC3CC3)nc(N)n2)C1.O.O.O=C(O)C(O)C(O)C(=O)O [Example 4, N^4-(cyclopropylmethyl)-6-[(3R)-3-(methylamino)pyrrolidin-1-yl]pyrimidine-2,4-diamine tartrate dihydrate]			RH at which the dehydration step occurs during desorption ([5]; DVS desorption): below 10 % RH; Water uptake (mass uptake) between 0-20% RH ([5]; DVS sorption): 1.9%; total mass uptake at 20-30% RH ([5]; DVS sorption): 6.9%; weight between 30-90% RH ([5]; DVS): remains stable
N[C@@H](CCC(=O)O)C(=O)O [Glutamic acid]	Gltm0	Amorphous	
(−)-L-Malic acid	Amorphous	Amorphous	
Cl [Hydrochloric acid]	Amorphous	Amorphous	
O=S(=O)(O)CCS(=O)(=O)O [Ethane-1,2-disulfonic acid]	Eds1 + Eds2	Eds1	

More lines, main results first:

XRPD 2 ([1]; 1-Butanol)	XRPD 2 ([1]; Dichloromethane)	Compound	further results
Asp0	Amorphous	N[C@@H](CC(=O)O)C(=O)O [L-Aspartic acid]	
Amorphous	Amorphous	CC(O)C(=O)O (stereo not drawn) [Lactic acid]	
Amorphous	Amorphous	O=C(O)/C=C\C(=O)O [Maleic acid]	
Sal1 plus	Amorphous	O=C(O)c1ccccc1O [Salicylic acid]	
Amorphous	Amorphous	CS(=O)(=O)O [Methanesulfonic acid]	
Pho2 plus	Pho3	O=P(O)(O)O [Phosphoric acid]	
Oxa3	Oxa3	O=C(O)C(=O)O [Oxalic acid]	
Nap1 + Nap0	Amorphous	O=S(=O)(O)c1ccc2ccccc2c1 [Naphtalene-2-sulfonic acid]	
Amorphous	Amorphous	O=C1O[C@H]([C@@H](O)CO)C(O)=C1O [L-Ascorbic acid]	
Amorphous	Amorphous	Cc1ccc(S(=O)(=O)O)cc1 [p-Toluenesulfonic acid]	
Ste0 + Ste1	Ste0 + Ste1	CCCCCCCCCCCCCCCCCC(=O)O [Stearic acid]	
